≈ marks a conversion by molar mass, not a printed value.
Experiments:
[1] = tested on: Pseudokirchneriella subcapitata; settings: 48 h
Procedure: Toxicity is determined using green algae Pseudokirchneriella subcapitata growth rate assay as described (Lee and Chen, 2009). Algal inoculum are withdrawn from the chemostat operated under a steady state, and transferred into 300 mL BOD bottles, together with dilution water (with growth medium) and toxicants. The BOD bottles are filled completely, leaving no headspace. A water seal is provided to ensure a closed test environment. The bottles are then placed on an orbital shaker operated at 100 rpm. Temperature and light intensity are kept at 24±1©° C. and 65 microEm−2 s−1 (±10%), respectively. US EPA bottle medium, with no EDTA content is used for toxicity testing. A sample of lyophilized quercetin (10%)/PVP (90%) is resuspended in solution. Two response endpoints are used to evaluate the toxicity of the resuspended quercetin; the final yield and algal growth rate based on cell density counts. […] The initial inoculated cell density is 15,000 cells/mL and the duration of the test is 48 h.

HCT-116 human cells = settings: cited from earlier work
CDK1 = CDK1 (Homo sapiens, UniProt P06493); settings: cited from earlier work
CDK4 = CDK4 (Homo sapiens, UniProt P11802); settings: cited from earlier work
[2] = tested on: Pseudokirchneriella subcapitata; settings: cited from earlier work
Daphnia magna [3] = settings: cited from earlier work
Daphnia magna [4] = settings: in vivo, 48 h
Procedure: Toxicity is determined using a Daphnia magna mobility assay as described (Kamaya et al., 2005). Neonates (<24 h old) from 2-3-week-old mothers are placed in a 50 ml glass beaker containing 40 ml of a test solution. All experiments for exposure and controls without chemicals are made in four replicates and performed at 21±0.3° C. under 16 h light: 8 h dark photoperiod. Immobility is used as the endpoint for determining acute toxicity; the daphnids showing no movement within 15 s after gentle stirring are defined to be immobile. After 24 and 48 h, the number of immobile daphnids is recorded to determine the concentration able to achieve 50% immobilization and it is indicated as EC50. The EC50 values are calculated by Probit analyses (USEPA, 1993), based on nominal concentrations and compared to similar experiments using benzoic acid and 2,4,6-THBA.

[5] = human
Source text: Potential human toxicity of 2,4,6-THBA can be related to its toxicity based on studies with Daphnia.

CDK6 = CDK6 (Homo sapiens, UniProt Q00534); settings: cited from earlier work
CDK6, sequence (Q00534 whole entry): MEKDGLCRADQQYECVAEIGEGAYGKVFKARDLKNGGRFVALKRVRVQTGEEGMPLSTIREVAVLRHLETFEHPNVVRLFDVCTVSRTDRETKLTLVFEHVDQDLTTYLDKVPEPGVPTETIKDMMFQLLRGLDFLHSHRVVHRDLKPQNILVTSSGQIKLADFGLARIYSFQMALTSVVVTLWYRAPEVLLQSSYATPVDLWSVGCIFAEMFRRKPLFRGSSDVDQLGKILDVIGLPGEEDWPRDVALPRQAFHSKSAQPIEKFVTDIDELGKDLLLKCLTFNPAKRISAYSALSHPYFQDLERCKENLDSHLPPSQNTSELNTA
CDK6, sequence (P24385 whole entry partner): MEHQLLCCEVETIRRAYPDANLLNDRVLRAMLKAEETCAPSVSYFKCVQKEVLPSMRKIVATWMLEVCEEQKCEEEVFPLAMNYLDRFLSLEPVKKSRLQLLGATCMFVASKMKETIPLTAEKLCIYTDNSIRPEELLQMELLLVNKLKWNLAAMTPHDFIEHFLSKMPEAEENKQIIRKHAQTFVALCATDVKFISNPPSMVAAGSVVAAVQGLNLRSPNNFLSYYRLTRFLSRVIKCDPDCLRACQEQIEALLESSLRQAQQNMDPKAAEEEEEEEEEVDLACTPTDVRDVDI

CDK2 = CDK2 (Homo sapiens, UniProt P24941); settings: cited from earlier work
[6] = human oral exposure; cited from earlier work
[7] = humans, cited from earlier work

CDK1, sequence (P06493 whole entry, species assumed): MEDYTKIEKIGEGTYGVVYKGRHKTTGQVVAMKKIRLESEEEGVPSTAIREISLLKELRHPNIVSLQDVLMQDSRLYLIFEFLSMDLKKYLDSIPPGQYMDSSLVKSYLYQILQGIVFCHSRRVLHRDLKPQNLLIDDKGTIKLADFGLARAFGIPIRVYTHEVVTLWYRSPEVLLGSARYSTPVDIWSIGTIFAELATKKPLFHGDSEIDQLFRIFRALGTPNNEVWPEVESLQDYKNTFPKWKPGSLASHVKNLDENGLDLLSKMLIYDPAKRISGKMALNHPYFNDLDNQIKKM
CDK1, sequence (P14635 whole entry partner, species assumed): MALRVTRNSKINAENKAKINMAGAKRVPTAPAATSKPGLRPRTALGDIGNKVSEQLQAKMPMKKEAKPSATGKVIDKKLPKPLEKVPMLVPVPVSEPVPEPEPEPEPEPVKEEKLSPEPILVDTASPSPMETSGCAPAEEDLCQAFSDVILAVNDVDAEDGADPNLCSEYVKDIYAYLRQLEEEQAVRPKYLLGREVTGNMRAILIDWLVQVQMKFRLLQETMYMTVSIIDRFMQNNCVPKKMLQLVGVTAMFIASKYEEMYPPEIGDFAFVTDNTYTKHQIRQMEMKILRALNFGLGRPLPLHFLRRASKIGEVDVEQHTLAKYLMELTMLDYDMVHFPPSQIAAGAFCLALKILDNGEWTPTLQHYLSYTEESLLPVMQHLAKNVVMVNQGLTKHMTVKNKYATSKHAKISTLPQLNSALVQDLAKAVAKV
CDK4, sequence (P11802 whole entry): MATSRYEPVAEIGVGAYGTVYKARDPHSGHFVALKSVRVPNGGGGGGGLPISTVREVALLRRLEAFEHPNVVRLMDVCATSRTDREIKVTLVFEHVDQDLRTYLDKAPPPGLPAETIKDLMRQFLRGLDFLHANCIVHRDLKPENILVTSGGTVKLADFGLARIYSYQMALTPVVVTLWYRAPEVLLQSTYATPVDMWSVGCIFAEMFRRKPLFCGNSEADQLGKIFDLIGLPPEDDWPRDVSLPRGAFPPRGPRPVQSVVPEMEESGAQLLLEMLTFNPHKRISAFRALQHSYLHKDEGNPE
CDK4, sequence (P24385 whole entry partner): as the sequence (P24385 whole entry partner) above

Question: Which “toxicity relative to benzoic acid and its other derivatives” value [1] does the source give for `O=C(O)c1c(O)cc(O)cc1O` [2,4,6-THBA, 2,4,6-trihydroxybenzoic acid] here?
Answer: The value was 70 times.

Question: What about the “cytotoxicity compared to other salicylic acid metabolites” value (HCT-116 human cells) of the same compound?
Answer: The value was “more cytotoxic”.

Question: What about the “inhibitory effect on CDK1” value (CDK1) of the same compound?
Answer: The value was “strong inhibitory effect”.

Question: What about the “inhibitory effect on CDK4” value (CDK4) of the same compound?
Answer: The value was “strong inhibitory effect”.

Question: What about the “EC50, suppression of growth” value [2] of the same compound?
Answer: The value was 0.546 µg/mL.

Question: What about the “EC50 at 48 h, mobility assay” value (Daphnia magna [3]) of the same compound?
Answer: Its value is 1.7 µg/mL (≈ 9.99 µM).

Question: What about the “LC50 in 48 h, immobilization test” value (Daphnia magna [3]) of the same compound?
Answer: The value was 1.7 µg/mL (≈ 9.99 µM).

Question: What about the “toxicity relative to benzoic acid” value (Daphnia magna [4]) of the same compound?
Answer: Its value is “about 500 times”.

Question: What about the “RfD estimated from Daphnia EC50” value [5] of the same compound?
Answer: Its value is 0.02 mg/kg/day.

Question: And the “RfD-based toxicity relative to benzoic acid” value [5]?
Answer: Its value is “more than 50 times”.

Question: What about the “RfD-based toxicity relative to quercetin” value [5] of the same compound?
Answer: Its value is 700 times.

Question: What about the “inhibitory effect on CDK6” value (CDK6) of the same compound?
Answer: Its value is “strong inhibitory effect”.

Question: What about the “inhibitory effect on CDK2” value (CDK2) of the same compound?
Answer: The value was “strong inhibitory effect”.

Question: Which “EC50, suppression of growth” value [2] does the source give for `O=C(O)c1ccccc1` [benzoic acid] here?
Answer: Its value is 36 µg/mL.

Question: What about the “EC50 at 48 h, mobility assay” value (Daphnia magna [3]) of the same compound?
Answer: Its value is 860 µg/mL (≈ 7040 µM).

Question: What about the “RfD / toxicity in humans” value [6] of the same compound?
Answer: The value was 1 mg/kg/day.

Question: For `O=c1c(O)c(-c2ccc(O)c(O)c2)oc2cc(O)cc(O)c12` [quercetin, 2-(3,4-dihydroxyphenyl)-3,5,7-trihydroxy-4H-chromen-4-one], which elimination half-life ([7]; after ingestion in foods or supplements) is on record?
Answer: Its elimination half-life is 1 to 2 h.

Question: And the bioavailability of quercetin [7]?
Answer: The bioavailability of quercetin was 0-50%.

Question: What about the “RfD / toxicity in humans” value [6] of the same compound?
Answer: The value was “more than 15 mg/kg/day”.

— US20200197354A1, “METHODS, COMPOSITIONS AND CONTAINERS FOR REDUCING SOLID FORM QUERCETIN DEGRADATION AND 2,4,6-TRIHYDROXYBENZOIC ACID TOXIC BYPRODUCT THEREOF” (PUBLIC JOINT STOCK COMPANY "SCIENTIFICINDUSTRIALCENTRE …, priority 2018, published 2020)
